Measurements taken from the supplement of paper PMC11208160.

Experiment: recombinant UMI read abundance after kanamycin selection (control-corrected) (log10(CPM+1)); higher = more efficient recombination; extreme values may be limits of the assay; sequences stand for … in AGTGCAGAGAAAATCGGCCAGTTTTCTCTGCCTGCAGTCCGCATGCCGTGGGACCCCTTGGGTTCTAACCTGTTGCCTAGATTTATGCAGCGGACTGCCTTTCTCCCAAAGTGATAAACCGG…AGGTTGGTTTCACT; site = the 11-nt donor
Summary of the method: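 In Escherichia coli, a pool of donor and donor-binding-loop pairs, each with a 12-nt UMI, was tested for the IS621 bridge recombinase. Plating was on IPTG (0.07 mM) plus kanamycin, or without selection, in two replicates. Recombinant UMIs were amplified by PCR across the donor–target junction and sequenced, and counts were reported as log10(CPM+1) after averaging and control-derived scaling.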
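Also: IS621 bridge recombinase in Escherichia coli cells against a fixed T5 target plasmid.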

With “CAATGTTCATGGACCGGTTTTCCCGGTAATCCGTATTTGAA (site CAATGTTCTTT)” as the sequence, how does the “recombinant UMI read abundance (log10)” value read?
The value was 2.11.

With “CAATTAACATGGACCGGTTTTCCCGGTAATCCGTATTTGCT (site CAATTAACTAG)” as the sequence, how does the “recombinant UMI read abundance (log10)” value read?
Its value is 0.982.

With “CAATTCACATGGACCGGTTTTCCCGGTAATCCGTATTTGGG (site CAAATCACTCC)” as the sequence, how does the “recombinant UMI read abundance (log10)” value read?
The value was 0.839.

Which “recombinant UMI read abundance (log10)” value does the source give for “CAATTCACATGGACCGGTTTTCCCGGTAATCCGTATTTGGG (site CAACTCACTCC)” here?
The value was 0.251.

Which “recombinant UMI read abundance (log10)” value does the source give for “CAATTCACATGGACCGGTTTTCCCGGTAATCCGTATTTGGG (site CAAGTCACTCC)” here?
Its value is 0.0135.

For “CAATTCACATGGACCGGTTTTCCCGGTAATCCGTATTTGGG (site CAATTCACTCC)”, which “recombinant UMI read abundance (log10)” value is on record?
Its value is 0.0754.

Which “recombinant UMI read abundance (log10)” value does the source give for “CAATTCCCATGGACCGGTTTTCCCGGTAATCCGTATTTGCA (site CAATTCCCTAG)” here?
Its value is 0.

With “CAATTCCCATGGACCGGTTTTCCCGGTAATCCGTATTTGCA (site CAATTCCCTCG)” as the sequence, how does the “recombinant UMI read abundance (log10)” value read?
The value was 0.00698.

For “CAATTCCCATGGACCGGTTTTCCCGGTAATCCGTATTTGCA (site CAATTCCCTGG)”, which “recombinant UMI read abundance (log10)” value is on record?
The value was 0.

With “CAATTCCCATGGACCGGTTTTCCCGGTAATCCGTATTTGCA (site CAATTCCCTTG)” as the sequence, how does the “recombinant UMI read abundance (log10)” value read?
The value was 1.27.

For “CAATTCTCATGGACCGGTTTTCCCGGTAATCCGTATTTGCT (site CAATTCACTAG)”, which “recombinant UMI read abundance (log10)” value is on record?
Its value is 0.75.

Which “recombinant UMI read abundance (log10)” value does the source give for “CAATTCTCATGGACCGGTTTTCCCGGTAATCCGTATTTGCT (site CAATTCCCTAG)” here?
The value was 0.421.

For “CAATTCTCATGGACCGGTTTTCCCGGTAATCCGTATTTGCT (site CAATTCGCTAG)”, which “recombinant UMI read abundance (log10)” value is on record?
The value was 0.

With “CAATTCTCATGGACCGGTTTTCCCGGTAATCCGTATTTGCT (site CAATTCTCTAG)” as the sequence, how does the “recombinant UMI read abundance (log10)” value read?
The value was 2.19.

Which “recombinant UMI read abundance (log10)” value does the source give for “CACAACACATGGACCGGTTTTCCCGGTAATCCGTATTTGAC (site CACAACACTGT)” here?
The value was 2.79.

With “CACATGGCATGGACCGGTTTTCCCGGTAATCCGTATTTGGA (site CACATGGCTTC)” as the sequence, how does the “recombinant UMI read abundance (log10)” value read?
The value was 0.785.

With “CACATGGCATGGACCGGTTTTCCCGGTAATCCGTATTTGGA (site CACCTGGCTTC)” as the sequence, how does the “recombinant UMI read abundance (log10)” value read?
The value was 0.346.

Which “recombinant UMI read abundance (log10)” value does the source give for “CACATGGCATGGACCGGTTTTCCCGGTAATCCGTATTTGGA (site CACGTGGCTTC)” here?
The value was 0.414.

Which “recombinant UMI read abundance (log10)” value does the source give for “CACATGGCATGGACCGGTTTTCCCGGTAATCCGTATTTGGA (site CACTTGGCTTC)” here?
Its value is 0.388.

Which “recombinant UMI read abundance (log10)” value does the source give for “CACATTGCATGGACCGGTTTTCCCGGTAATCCGTATTTGGT (site CACATTGCTAC)” here?
Its value is 1.69.

Which “recombinant UMI read abundance (log10)” value does the source give for “CACCATGCATGGACCGGTTTTCCCGGTAATCCGTATTTGCG (site CACCATGCTCG)” here?
The value was 1.28.

For “CACCCCTCATGGACCGGTTTTCCCGGTAATCCGTATTTGCC (site CACACCTCTGG)”, which “recombinant UMI read abundance (log10)” value is on record?
The value was 0.

Which “recombinant UMI read abundance (log10)” value does the source give for “CACCCCTCATGGACCGGTTTTCCCGGTAATCCGTATTTGCC (site CACCCCTCTGG)” here?
The value was 2.71.

For “CACCCCTCATGGACCGGTTTTCCCGGTAATCCGTATTTGCC (site CACGCCTCTGG)”, which “recombinant UMI read abundance (log10)” value is on record?
The value was 0.

Which “recombinant UMI read abundance (log10)” value does the source give for “CACCCCTCATGGACCGGTTTTCCCGGTAATCCGTATTTGCC (site CACTCCTCTGG)” here?
Its value is 1.21.

Which “recombinant UMI read abundance (log10)” value does the source give for “CACCGATCATGGACCGGTTTTCCCGGTAATCCGTATTTGGC (site CACCGATCTGC)” here?
The value was 3.71.

Which “recombinant UMI read abundance (log10)” value does the source give for “CACCGCCCATGGACCGGTTTTCCCGGTAATCCGTATTTGTT (site CACAGCCCTAA)” here?
The value was 0.00423.

With “CACCGCCCATGGACCGGTTTTCCCGGTAATCCGTATTTGTT (site CACCGCCCTAA)” as the sequence, how does the “recombinant UMI read abundance (log10)” value read?
Its value is 0.033.

For “CACCGCCCATGGACCGGTTTTCCCGGTAATCCGTATTTGTT (site CACGGCCCTAA)”, which “recombinant UMI read abundance (log10)” value is on record?
The value was 0.0192.

For “CACCGCCCATGGACCGGTTTTCCCGGTAATCCGTATTTGTT (site CACTGCCCTAA)”, which “recombinant UMI read abundance (log10)” value is on record?
The value was 0.0163.

With “CACCGCGCATGGACCGGTTTTCCCGGTAATCCGTATTTGTC (site CACCGCGCTGA)” as the sequence, how does the “recombinant UMI read abundance (log10)” value read?
Its value is 2.33.

With “CACCGTACATGGACCGGTTTTCCCGGTAATCCGTATTTGAT (site CACCGTACTAT)” as the sequence, how does the “recombinant UMI read abundance (log10)” value read?
The value was 1.95.
